The values below come from PMC7087583 (Biotechnology Letters, 2012).

The structures appear in SMILES notation.

This test concerns the target SARS 3CL^pro (Severe acute respiratory syndrome coronavirus, UniProt P0C6U8). The test can be described thus: biochemical. On the set-up: species or system SARS-CoV.

As usually defined, the IC50 is the midpoint of a concentration-inhibition curve. By Ki is commonly meant the equilibrium dissociation constant of an inhibitor or competing ligand from its target. The low end stands for tighter binding, the high end for weaker binding. What is called inhibition is the percentage by which the read-out fell short of the control. Low values mean a response near the control, high ones a response far below the control. Turning to `O=C(O[C@@H]1Cc2c(O)cc(O)cc2O[C@H]1c1cc(O)c(O)c(O)c1)c1cc(O)c(O)c(O)c1` [GCG, gallocatechin gallate], the “3CL^pro inhibitory activity relative to EGCG (times higher)” value stood at 1.5 times, the IC50 amounted to 47 ± 0.9 µM, the affinity corresponds to a Ki of 25 ± 1.7 µM and the Type of inhibition entry is given as “competitive inhibition pattern”. In addition, the inhibition at 200 µM (pH 7.5) was > 80%.
Molecule `O=c1c(-c2ccc(O)cc2)coc2c([C@@H]3O[C@H](CO)[C@@H](O)[C@H](O)[C@H]3O)c(O)ccc12` [Puerarin, puerarin] gave an IC50 of 381 ± 12.5 µM. The inhibition at 200 µM (pH 7.5) is > 30%.
For `O=c1c(-c2ccc(O)cc2)coc2cc(O)ccc12` [Daidzein, daidzein], the IC50 came out at 351 ± 2.9 µM. For the same molecule, the inhibition at 200 µM (pH 7.5) was > 30%.
With `O=C1c2c(O)cc(O)cc2O[C@H](c2cc(O)c(O)c(O)c2)[C@H]1O` [AMPLS, ampelopsin], inhibition was half-maximal at 364 ± 8.7 µM (IC50). Also, the inhibition at 200 µM (pH 7.5) is > 30%.
For the molecule `Oc1cc(O)c2c(c1)O[C@H](c1cc(O)c(O)c(O)c1)[C@H](O)C2` [EGC, epigallocatechin], where the note is “pH 7.5”, the “Inhibition (%)” value is given as 5.4% and the inhibition at 200 µM was 5%.
The molecule `O=c1c(O)c(-c2ccc(O)c(O)c2)oc2cc(O)cc(O)c12` [Quercetin] came in with an IC50 of 73 ± 4 µM. For the same molecule, the inhibition at 200 µM (pH 7.5) was > 80%.
